Assay results taken from the NIST ThermoML archive (doi:10.1016/j.jct.2006.11.003).

Assay: xn = mol fraction of the nth substance listed
Conditions: 101 kPa, Liquid

Cc1ccc(C)cc1 [1,4-dimethylbenzene] + CN1CCCC1=O
Conditions | mass density [kg/m3]
293.15 K, x1 = 0.0511 | 1023.02
293.15 K, x1 = 0.1204 | 1010.11
293.15 K, x1 = 0.1985 | 995.8
293.15 K, x1 = 0.2451 | 987.37
293.15 K, x1 = 0.2987 | 977.77
293.15 K, x1 = 0.3458 | 969.44
293.15 K, x1 = 0.4012 | 959.72
293.15 K, x1 = 0.4781 | 946.42
293.15 K, x1 = 0.5314 | 937.3
293.15 K, x1 = 0.5984 | 925.99
293.15 K, x1 = 0.6558 | 916.4
293.15 K, x1 = 0.7154 | 906.57
293.15 K, x1 = 0.7841 | 895.34
293.15 K, x1 = 0.8512 | 884.52
293.15 K, x1 = 0.9254 | 872.69
293.15 K, x1 = 1 | 860.95
303.15 K, x1 = 0.0645 | 1011.3
303.15 K, x1 = 0.1151 | 1001.91
303.15 K, x1 = 0.1814 | 989.76
303.15 K, x1 = 0.2654 | 974.62
303.15 K, x1 = 0.3214 | 964.66
303.15 K, x1 = 0.3854 | 953.43
303.15 K, x1 = 0.4515 | 941.97
303.15 K, x1 = 0.5024 | 933.26
303.15 K, x1 = 0.5685 | 922.06
303.15 K, x1 = 0.6214 | 913.21
303.15 K, x1 = 0.6754 | 904.26
303.15 K, x1 = 0.7451 | 892.85
303.15 K, x1 = 0.8114 | 882.12
303.15 K, x1 = 0.8841 | 870.51
303.15 K, x1 = 0.9514 | 859.89
303.15 K, x1 = 1 | 852.3
313.15 K, x1 = 0.0521 | 1004.87
313.15 K, x1 = 0.1142 | 993.77
313.15 K, x1 = 0.1721 | 983.53
313.15 K, x1 = 0.2302 | 973.36
313.15 K, x1 = 0.3065 | 960.16
313.15 K, x1 = 0.3615 | 950.77
313.15 K, x1 = 0.4115 | 942.31
313.15 K, x1 = 0.4841 | 930.18
313.15 K, x1 = 0.5547 | 918.53
313.15 K, x1 = 0.6208 | 907.77
313.15 K, x1 = 0.7055 | 894.15
313.15 K, x1 = 0.7805 | 882.26
313.15 K, x1 = 0.8372 | 873.36
313.15 K, x1 = 0.8947 | 864.42
313.15 K, x1 = 0.9539 | 855.29
323.15 K, x1 = 0.0575 | 994.81
323.15 K, x1 = 0.1247 | 982.32
323.15 K, x1 = 0.2011 | 968.35
323.15 K, x1 = 0.2784 | 954.42
323.15 K, x1 = 0.338 | 943.85
323.15 K, x1 = 0.4015 | 932.73
323.15 K, x1 = 0.4697 | 920.97
323.15 K, x1 = 0.5389 | 909.19
323.15 K, x1 = 0.6003 | 898.9
323.15 K, x1 = 0.6674 | 887.8
323.15 K, x1 = 0.7245 | 878.46
323.15 K, x1 = 0.7806 | 869.38
323.15 K, x1 = 0.8341 | 860.82
323.15 K, x1 = 0.8947 | 851.21
323.15 K, x1 = 0.9481 | 842.83
323.15 K, x1 = 1 | 834.76
333.15 K, x1 = 0.0462 | 987.58
333.15 K, x1 = 0.1025 | 977.11
333.15 K, x1 = 0.1724 | 964.26
333.15 K, x1 = 0.2354 | 952.85
333.15 K, x1 = 0.2951 | 942.18
333.15 K, x1 = 0.3658 | 929.72
333.15 K, x1 = 0.4315 | 918.31
333.15 K, x1 = 0.5007 | 906.49
333.15 K, x1 = 0.5714 | 894.57
333.15 K, x1 = 0.6378 | 883.55
333.15 K, x1 = 0.7047 | 872.6
333.15 K, x1 = 0.7533 | 864.73
333.15 K, x1 = 0.8258 | 853.13
333.15 K, x1 = 0.8846 | 843.83
333.15 K, x1 = 0.9479 | 833.93
333.15 K, x1 = 1 | 825.86
343.15 K, x1 = 0.0675 | 974.69
343.15 K, x1 = 0.1353 | 962.13
343.15 K, x1 = 0.2024 | 949.85
343.15 K, x1 = 0.2715 | 937.41
343.15 K, x1 = 0.3376 | 925.68
343.15 K, x1 = 0.4061 | 913.71
343.15 K, x1 = 0.4719 | 902.38
343.15 K, x1 = 0.5422 | 890.46
343.15 K, x1 = 0.6103 | 879.09
343.15 K, x1 = 0.6749 | 868.44
343.15 K, x1 = 0.7405 | 857.78
343.15 K, x1 = 0.8049 | 847.44
343.15 K, x1 = 0.8674 | 837.54
343.15 K, x1 = 0.9308 | 827.6
343.15 K, x1 = 0.9788 | 820.15
343.15 K, x1 = 1 | 816.87
353.15 K, x1 = 0.0567 | 967.91
353.15 K, x1 = 0.1134 | 957.31
353.15 K, x1 = 0.1826 | 944.57
353.15 K, x1 = 0.2527 | 931.85
353.15 K, x1 = 0.3072 | 922.09
353.15 K, x1 = 0.3857 | 908.27
353.15 K, x1 = 0.4584 | 895.67
353.15 K, x1 = 0.5036 | 887.95
353.15 K, x1 = 0.5757 | 875.79
353.15 K, x1 = 0.6382 | 865.4
353.15 K, x1 = 0.7016 | 855.01
353.15 K, x1 = 0.7613 | 845.35
353.15 K, x1 = 0.8139 | 836.93
353.15 K, x1 = 0.8846 | 825.75
353.15 K, x1 = 0.9378 | 817.44
353.15 K, x1 = 1 | 807.81

Cc1ccccc1C [1,2-dimethylbenzene] + CN1CCCC1=O
Conditions | mass density [kg/m3]
293.15 K, x1 = 0.0478 | 1024.81
293.15 K, x1 = 0.0865 | 1018.48
293.15 K, x1 = 0.1584 | 1006.82
293.15 K, x1 = 0.2266 | 995.89
293.15 K, x1 = 0.2714 | 988.75
293.15 K, x1 = 0.3393 | 978.06
293.15 K, x1 = 0.387 | 970.61
293.15 K, x1 = 0.4321 | 963.63
293.15 K, x1 = 0.5011 | 953.04
293.15 K, x1 = 0.5668 | 943.08
293.15 K, x1 = 0.6297 | 933.64
293.15 K, x1 = 0.7099 | 921.74
293.15 K, x1 = 0.7859 | 910.6
293.15 K, x1 = 0.8577 | 900.18
293.15 K, x1 = 0.9388 | 888.55
293.15 K, x1 = 1 | 879.84
303.15 K, x1 = 0.0565 | 1014.2
303.15 K, x1 = 0.1122 | 1005.19
303.15 K, x1 = 0.1895 | 992.78
303.15 K, x1 = 0.2467 | 983.7
303.15 K, x1 = 0.3239 | 971.56
303.15 K, x1 = 0.3967 | 960.27
303.15 K, x1 = 0.4565 | 951.08
303.15 K, x1 = 0.5127 | 942.54
303.15 K, x1 = 0.5655 | 934.58
303.15 K, x1 = 0.6251 | 925.68
303.15 K, x1 = 0.7076 | 913.5
303.15 K, x1 = 0.7626 | 905.46
303.15 K, x1 = 0.8498 | 892.86
303.15 K, x1 = 0.9049 | 884.97
303.15 K, x1 = 0.9639 | 876.58
303.15 K, x1 = 1 | 871.48
313.15 K, x1 = 0.0485 | 1006.39
313.15 K, x1 = 0.0922 | 999.35
313.15 K, x1 = 0.1795 | 985.39
313.15 K, x1 = 0.2368 | 976.31
313.15 K, x1 = 0.3036 | 965.84
313.15 K, x1 = 0.3679 | 955.86
313.15 K, x1 = 0.4285 | 946.56
313.15 K, x1 = 0.4894 | 937.31
313.15 K, x1 = 0.5375 | 930.05
313.15 K, x1 = 0.6034 | 920.22
313.15 K, x1 = 0.673 | 909.94
313.15 K, x1 = 0.7355 | 900.8
313.15 K, x1 = 0.8196 | 888.65
313.15 K, x1 = 0.8767 | 880.48
313.15 K, x1 = 0.9289 | 873.06
313.15 K, x1 = 1 | 863.03
323.15 K, x1 = 0.0478 | 997.82
323.15 K, x1 = 0.1014 | 989.16
323.15 K, x1 = 0.1603 | 979.74
323.15 K, x1 = 0.2364 | 967.69
323.15 K, x1 = 0.3026 | 957.34
323.15 K, x1 = 0.3575 | 948.83
323.15 K, x1 = 0.4244 | 938.56
323.15 K, x1 = 0.4915 | 928.37
323.15 K, x1 = 0.5582 | 918.35
323.15 K, x1 = 0.6217 | 908.9
323.15 K, x1 = 0.6735 | 901.26
323.15 K, x1 = 0.7536 | 889.56
323.15 K, x1 = 0.8206 | 879.9
323.15 K, x1 = 0.8728 | 872.43
323.15 K, x1 = 0.9511 | 861.36
323.15 K, x1 = 1 | 854.51
333.15 K, x1 = 0.0579 | 986.94
333.15 K, x1 = 0.1023 | 979.83
333.15 K, x1 = 0.1814 | 967.25
333.15 K, x1 = 0.2556 | 955.59
333.15 K, x1 = 0.3135 | 946.59
333.15 K, x1 = 0.3815 | 936.11
333.15 K, x1 = 0.4478 | 926.02
333.15 K, x1 = 0.5014 | 917.94
333.15 K, x1 = 0.5654 | 908.37
333.15 K, x1 = 0.6122 | 901.45
333.15 K, x1 = 0.6632 | 893.96
333.15 K, x1 = 0.8105 | 872.67
333.15 K, x1 = 0.8744 | 863.57
333.15 K, x1 = 0.9214 | 856.93
333.15 K, x1 = 0.9632 | 851.06
333.15 K, x1 = 1 | 845.91
343.15 K, x1 = 0.0462 | 979.94
343.15 K, x1 = 0.1045 | 970.59
343.15 K, x1 = 0.1614 | 961.55
343.15 K, x1 = 0.2153 | 953.05
343.15 K, x1 = 0.2864 | 941.94
343.15 K, x1 = 0.3576 | 930.94
343.15 K, x1 = 0.4102 | 922.9
343.15 K, x1 = 0.4828 | 911.91
343.15 K, x1 = 0.5477 | 902.2
343.15 K, x1 = 0.6065 | 893.5
343.15 K, x1 = 0.6735 | 883.68
343.15 K, x1 = 0.7533 | 872.13
343.15 K, x1 = 0.8095 | 864.07
343.15 K, x1 = 0.8745 | 854.83
343.15 K, x1 = 0.9407 | 845.51
343.15 K, x1 = 1 | 837.23
353.15 K, x1 = 0.0475 | 970.95
353.15 K, x1 = 0.1037 | 961.94
353.15 K, x1 = 0.1582 | 953.26
353.15 K, x1 = 0.2167 | 944.03
353.15 K, x1 = 0.2633 | 936.72
353.15 K, x1 = 0.34 | 924.83
353.15 K, x1 = 0.4067 | 914.62
353.15 K, x1 = 0.4529 | 907.6
353.15 K, x1 = 0.5184 | 897.76
353.15 K, x1 = 0.5689 | 890.24
353.15 K, x1 = 0.6322 | 880.91
353.15 K, x1 = 0.7097 | 869.62
353.15 K, x1 = 0.7859 | 858.64
353.15 K, x1 = 0.8511 | 849.36
353.15 K, x1 = 0.9354 | 837.48
353.15 K, x1 = 1 | 828.47
